Test results published in patent US10081631B2, “2-(1H-indazol-3-yl)-1H-imidazo[4,5-C]pyridine and therapeutic uses thereof” (Samumed, LLC, priority 2014, dated 2018).

Experiments:
[1] = test system: Wnt activity (Sp5-Luc reporter, SW480 colon carcinoma cells); test: Screening assay for Wnt activity: Sp5-Luc reporter gene assay in SW480 cells; assay type: cell-based; conditions: Homo sapiens, 42 h incubation, luminescence
How it was run: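 IC50 values come from variable-slope four-parameter fits of luciferase signal normalized to DMSO wells. Stable Sp5-Luc reporter SW480 colon carcinoma cells were exposed to compounds in a 3-fold dilution series (source plates from 10 mM stock) for forty-two hours at 37 °C.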

[2] = test system: primary human fibroblasts derived from IPF patients (LL29 cells); test: Inhibition of fibrosis: TGF-β1-treated primary human fibroblasts from IPF patients (LL29), αSMA staining; assay type: cell-based; conditions: Fibroblast, 96 h, TGF-β1 20 ng/mL, 4 days, % αSMA-positive cells
How it was run: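 […] (0.1% DMSO) on LL29 cells in F12 with 1% FBS, with TGF-β1 (20 ng/mL) added 1 h after plating; 4 days at 37 °C. SYTOX-positive dead cells were excluded and the % αSMA-positive cells was imaged, normalized to TGF-β1/DMSO wells, triplicates; EC50 by non-linear regression.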

Structure (SMILES) | IC50 [1] [nM] | EC50 [2] [nM]
c1cc2[nH]c(-c3n[nH]c4ccc(-c5cncc(CNCC6CCCC6)c5)cc34)nc2c(-c2ccoc2)n1 [Compound 284, 1-Cyclopentyl-N-((5-(3-(4-(furan-3-yl)-1H-imidazo[4,5-c]pyridin-2-yl)-1H-indazol-5-yl)pyridin-3-yl)methyl)methanamine] | > 10000 | 9
O=C(Nc1cncc(-c2ccc3[nH]nc(-c4nc5c(-c6ccncc6)nccc5[nH]4)c3c2)c1)C1CCCCC1 [Compound 126, N-(5-(3-(4-(Pyridin-4-yl)-1H-imidazo[4,5-c]pyridin-2-yl)-1H-indazol-5-yl)pyridin-3-yl)cyclohexanecarboxamide] | 1190 | 9990
O=C(Nc1cncc(-c2ccc3[nH]nc(-c4nc5c(N6CCCCC6)nccc5[nH]4)c3c2)c1)C1CC1 [Compound 175, N-(5-(3-(4-(Piperidin-1-yl)-1H-imidazo[4,5-c]pyridin-2-yl)-1H-indazol-5-yl)pyridin-3-yl)cyclopropanecarboxamide] | 278 | 115
c1cncc(-c2nccc3[nH]c(-c4n[nH]c5ccc(-c6cncc(CN7CCCCC7)c6)cc45)nc23)c1 [Compound 93, 2-(5-(5-(Piperidin-1-ylmethyl)pyridin-3-yl)-1H-indazol-3-yl)-4-(pyridin-3-yl)-1H-imidazo[4,5-c]pyridine] | 318 | 388
FC1(F)CCN(Cc2cncc(-c3ccc4[nH]nc(-c5nc6c(N7CCCCC7)nccc6[nH]5)c4c3)c2)C1 [Compound 181, 2-(5-(5-((3,3-Difluoropyrrolidin-1-yl)methyl)pyridin-3-yl)-1H-indazol-3-yl)-4-(piperidin-1-yl)-1H-imidazo[4,5-c]pyridine] | 67 | 80.5
CC(C)C(=O)Nc1cncc(-c2ccc3[nH]nc(-c4nc5c(-c6cccnc6)nccc5[nH]4)c3c2)c1 [Compound 87, N-(5-(3-(4-(Pyridin-3-yl)-1H-imidazo[4,5-c]pyridin-2-yl)-1H-indazol-5-yl)pyridin-3-yl)isobutyramide] | 3 | 295
CN(C)Cc1cncc(-c2ccc3[nH]nc(-c4nc5c(-c6cccc(F)c6)nccc5[nH]4)c3c2)c1 [Compound 13, 1-(5-(3-(4-(3-Fluorophenyl)-1H-imidazo[4,5-c]pyridin-2-yl)-1H-indazol-5-yl)pyridin-3-yl)-N,N-dimethylmethanamine] | 1 | 9

Now from value to molecule, other results behind:

IC50 [1] [nM] | Structure (SMILES) | EC50 [2] [nM]
243 | O=C(CC1CCNCC1)Nc1cncc(-c2ccc3[nH]nc(-c4nc5c(-c6cccc(F)c6)nccc5[nH]4)c3c2)c1 [Compound 1777, N-(5-(3-(4-(3-Fluorophenyl)-1H-imidazo[4,5-c]pyridin-2-yl)-1H-indazol-5-yl)pyridin-3-yl)-2-(piperidin-4-yl)acetamide] | 107
5.2 | CC(C)(C)C(=O)Nc1cncc(-c2ccc3[nH]nc(-c4nc5c(-c6ccc(F)s6)nccc5[nH]4)c3c2)c1 [Compound 320, N-(5-(3-(4-(5-Fluorothiophen-2-yl)-1H-imidazo[4,5-c]pyridin-2-yl)-1H-indazol-5-yl)pyridin-3-yl)pivalamide] | 115
778 | Fc1cccc(-c2nccc3[nH]c(-c4n[nH]c5ccc(-c6cncc(OC7CCNCC7)c6)cc45)nc23)c1 [Compound 1776, 4-(3-Fluorophenyl)-2-(5-(5-(piperidin-4-yloxy)pyridin-3-yl)-1H-indazol-3-yl)-1H-imidazo[4,5-c]pyridine] | 38
24 | CCCC(=O)Nc1cncc(-c2ccc3[nH]nc(-c4nc5c(-c6cc(F)cc(CNS(C)(=O)=O)c6)nccc5[nH]4)c3c2)c1 [Compound 407, N-(5-(3-(4-(3-Fluoro-5-(methylsulfonamidomethyl)phenyl)-1H-imidazo[4,5-c]pyridin-2-yl)-1H-indazol-5-yl)pyridin-3-yl)butyramide] | 19
6 | Oc1cncc(-c2ccc3[nH]nc(-c4nc5c(-c6cccc(F)c6)nccc5[nH]4)c3c2)c1 [Compound 1781, 5-(3-(4-(3-Fluorophenyl)-1H-imidazo[4,5-c]pyridin-2-yl)-1H-indazol-5-yl)pyridin-3-ol] | 79
